Entries after “also recorded” stand apart in the source; their conditions may differ.
What was measured:
[1] = tested on: leukocyte populations; experiment: Flow cytometric analysis of leukocyte populations in B16 tumor-bearing mice; type: in vivo; details: vs vehicle
Protocol: (§1) WT or C3aR^−/− mice were injected subcutaneously (s.c.) with B16-F0 melanoma (2.5×10^5 cells/mouse) or MC38 colon carcinoma (1×10^6 cells/mouse); female BALB/c mice were injected into the mammary fat pad with 4T1 mammary carcinoma (5×10^5 cells/mouse). Tumor growth was monitored daily from day 5 after tumor cell injection. For some experiments, C57BL/63 mice received daily injections of either C3aR antagonist (SB290157; VDM Biochemicals, Bedford Heights, Ohio; diluted in saline, 1 mg/kg/day i.p.,), C5aR antagonist (PMX53; produced in-house; 1 mg/kg/day) or vehicle only (0.9% saline or 5% glucose solution) control, commencing once tumors became palpable (approx. day 7 after tumor cell injection). For most experiments, mice were euthanized at day 14 (or once the largest tumor reached an area of approx. 200 mm^2), blood was collected by cardiac puncture, tumors, spleen, draining lymph nodes (inguinal, axillary and brachial) and femurs excised for FACS or immunostaining; tumors were weighed. For ‘survival’ studies, the time taken for each tumor to reach a pre-determined size (150 mm^2) was recorded, then mice euthanized.
Single cell suspensions of blood, tumor, spleen and lymph node and bone marrow cell were prepared for surface staining with antibodies to mouse CD45, F4/80, CD11b, Ly6G, Gr-1, CD3, CD4, CD8a (all from Biolegend, San Diego, Calif.). Staining for Tregs was carried out using a FoxP3 Fix/Perm kit (BioLegend), according to manufacturer's instructions. For Th1, Th2, Th17 staining, cells were stimulated with phorbol 12-myristate 13-acetate (PMA; 50 ng/ml; Sigma) and ionomycin (1 μM; Sigma) in the presence of Brefeldin A (5 μg/ml; BioLegend) for 4 h at 37° C. After surface staining, cells were fixed and permeabilized for staining of intracellular cytokines; IL-4, IL-17A or IFN-γ (all from BioLegend). Flow cytometry was performed using an Accuri C6 flow cytometer (BD Biosciences) and data analysis with FlowJo software (Tree Star, Inc., Ashland, Oreg.). Details are provided in Supplemental Experimental Procedures.

[2] = tested on: B16 melanoma; experiment: B16 melanoma growth and survival in mice; type: in vivo; details: for survival (time until tumors reach maximal size): C3aRA vs vehicle
Protocol: as §1

[3] = tested on: 4T1 mammary carcinoma; experiment: 4T1 mammary carcinoma growth in BALB/c mice; type: in vivo; details: female BALB/c mice, 1 mg/kg/day i.p. from day 0, vs saline
Protocol: as §1, with “For some experiments, C57BL/63 mice received daily injections of either C3aR antagonist (SB290157; VDM Biochemicals, Bedford Heights, Ohio; diluted in saline, 1 mg/kg/day i.p.,), C5aR antagonist (PMX53; produced in-house; 1 mg/kg/day) or vehicle only (0.9% saline or 5% glucose solution) control, commencing once tumors became palpable (approx. day 7 after tumor cell injection).” left out

[4] = molecular target: T1, C3aR (Mus musculus, UniProt O09047); experiment: Calcium mobilization in B16 cells; type: cell-based, murine; details: cultured B16 cells
T1 construct: endogenous in cells; host or cells: B16-F0 murine melanoma cells (ATCC CRL6322)
T1 sequence (O09047 1-477): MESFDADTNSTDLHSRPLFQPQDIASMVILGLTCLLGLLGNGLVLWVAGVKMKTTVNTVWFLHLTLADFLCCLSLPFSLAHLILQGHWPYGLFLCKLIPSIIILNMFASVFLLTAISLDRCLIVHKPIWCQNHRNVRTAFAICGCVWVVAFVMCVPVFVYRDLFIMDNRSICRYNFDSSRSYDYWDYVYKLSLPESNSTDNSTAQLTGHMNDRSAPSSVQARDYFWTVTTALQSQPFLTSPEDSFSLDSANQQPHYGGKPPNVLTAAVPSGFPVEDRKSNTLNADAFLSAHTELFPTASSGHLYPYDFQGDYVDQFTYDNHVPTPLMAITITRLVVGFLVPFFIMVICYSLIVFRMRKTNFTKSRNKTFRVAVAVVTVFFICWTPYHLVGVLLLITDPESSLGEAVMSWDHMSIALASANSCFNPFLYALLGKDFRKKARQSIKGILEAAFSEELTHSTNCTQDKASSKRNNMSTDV

[5] = tested on: ERK and AKT signaling pathways; experiment: Western analysis of ERK and AKT phosphorylation in B16 cells; type: cell-based, murine; details: cultured B16 cells, 0-60 min
Protocol: B16 cells were treated with recombinant human C3a (10 nM) or the selective mouse C3aR agonist WWGKKYRASKLGLAR [SEQ ID NO: 5] (Proctor et al., 2009; Wu et al., 2013) for the times indicated in the experiment. After treatment, crude protein extracts were obtained by disrupting the cells in RIPA lysis buffer. Samples were subjected to SDS-PAGE (Laemmli, 1970), then separated proteins electrotransferred (Towbin et al., 1979) to a PVDF membrane. Membranes were incubated with antibodies to anti-phospho-AKT, anti-total AKT (Cell Signaling, Danvers, Mass.), mouse anti-diphosphorylated ERK1/2 and rabbit anti-total ERK1/2 (Sigma-Aldrich) followed by fluorescently-labelled secondary antibodies (IR Dye 800CW-goat anti-mouse Ig and IR Dye 680LT anti-rabbit Ig; Li-Cor Biosciences). Immunoreactive bands were visualized by scanning on an Odyssey Imaging System (Li-Cor Biosciences) and the percentage phosphorylated protein relative to total protein determined using Odyssey V3.0 image analysis software.

[6] = tested on: B16 melanoma cells; experiment: Cell migration assay (scratch) of B16 cells; type: cell-based, murine; details: 10^-6 mol/L, 24 hours
Protocol: Cells were seeded at confluence (2×10^5 cells/cm^2) into a 24 well plate, adhered overnight and then confluent monolayers scratched with a pipette tip before being treated for 24 hours with C3aR agonist (10^−6 mol/L); control wells were incubated with medium alone or containing 5% FCS. Migration was quantified by measuring cell-free areas at day 0 and 24 hours using Image-J software (NIH, Bethesda, Md., USA).

[7] = tested on: B16 melanoma cells; experiment: B16 tumor cell proliferation; type: cell-based, murine
[8] = tested on: CD11b+Ly6G+ neutrophils; experiment: Neutrophil mobilization by G-CSF in wild-type and C3aR-/- mice; type: in vivo; details: 120 μg/kg i.v., 2 hours
Protocol: Wild-type, or C3aR^−/− mice were injected i.v. with G-CSF (Lenograstim; 120 μg/kg), or vehicle (saline). Blood was collected after 2 hours, and CD11b+Ly6G+ neutrophils analyzed using flow cytometry for CD11b+ and Ly6G+.

[9] = established B16 melanoma, C57BL/6J mice, 1 mg/kg/day i.p. from day 7, vs vehicle

N=C(N)NCCC[C@H](NC(=O)COCC(c1ccccc1)c1ccccc1)C(=O)O [SB290157, N^2-[(2,2-diphenylethoxy)acetyl]-1-arginine]
Tregs ([1]; blood): reduction | neutrophils ([1]; blood): significant increase | MDSC ([1]; bone marrow): significantly lower | monocytes ([1]; bone marrow): significantly lower | neutrophils ([1]; bone marrow): significantly lower | Th2 cells ([1]; draining lymph nodes): significantly increased | macrophages ([1]; draining lymph nodes): not significantly different | monocytes ([1]; draining lymph nodes): not significantly different | neutrophils ([1]; draining lymph nodes): not significantly different | percentage of CD4+ T lymphocytes ([1]; draining lymph nodes): significantly increased | percentage of CD8+ T lymphocytes ([1]; draining lymph nodes): significantly increased | CD4+ lymphocytes ([1]; spleen): significantly higher | MDSC ([1]; spleen): significantly lower | Th2 cells ([1]; spleen): significant increases | Treg cells ([1]; spleen): significant increases | proportion of macrophages ([1]; spleen): not significantly altered | proportion of monocytes ([1]; spleen): not significantly altered | proportion of neutrophils ([1]; spleen): not significantly altered | total lymphocytes ([1]; spleen): significantly higher | percentage of CD4+ T lymphocytes ([1]; tumor tissue, 1 mg/kg/day): higher | percentage of Th1 subset ([1]; tumor tissue, 1 mg/kg/day): significantly increased | percentage of Th2 subset ([1]; tumor tissue, 1 mg/kg/day): significantly increased | percentage of Th17 subset ([1]; tumor tissue, 1 mg/kg/day): significantly increased | percentage of total T lymphocytes ([1]; tumor tissue, 1 mg/kg/day): higher | percentage of tumor-infiltrating neutrophils ([1]; tumor tissue, 1 mg/kg/day): increased | proportion of MDSC ([1]; tumor tissue, 1 mg/kg/day): not significantly altered | tumor-associated macrophages ([1]; tumor tissue, 1 mg/kg/day): reduced | survival (time until tumors reach maximal size) ([2]; B16 melanoma): significantly improved | survival (time until tumors reach maximal size) ([2]; B16 melanoma, listed as C3aRA): increased survival | excised tumor weights ([2]; B16 melanoma, day 14, 1 mg/kg/day i.p. from day 7, vs vehicle): significantly smaller | tumor area [2, 9]: significantly smaller than in the vehicle-treated control group | tumor progression [2, 9]: dramatically retarded | tumor growth [3]: significant inhibition of tumor growth

recombinant human C3a: recombinant human C3a used to stimulate B16 cells
calcium mobilization response [4]: failed to initiate a calcium mobilization response | ERK and AKT signaling pathways [5]: activated

PMX53
reduction in tumor growth observed in C3aR-/- mice ([2]; C3aR-/- mice, B16 melanoma, 1 mg/kg/day s.c. once tumors palpable): not enhanced | melanoma growth ([2]; WT mice, B16 melanoma, 1 mg/kg/day s.c. once tumors palpable, vs vehicle): inhibited melanoma growth

WWGKKYRASKLGLAR (listed as Homo sapiens) [selective C3aR agonist]
cell migration [6]: significantly increased | calcium mobilization response [4]: failed to initiate a calcium mobilization response | ERK and AKT signaling pathways [5]: activated | tumor cell proliferation [7]: no significant effect

B1: G-CSF: granulocyte-colony stimulating factor (Lenograstim), stem cell-mobilizing agent (protein, UniProt P09919 31-207, looked up)
Granulocyte …: TPLGPASSLPQSFLLKCLEQVRKIQGDGAALQEKLVSECATYKLCHPEELVLLGHSLGIPWAPLSSCPSQALQLAGCLSQLHSGLFLYQGLLQALEGISPELGPTLDTLQLDVADFATTIWQQMEELGMAPALQPTQGAMPAFASAFQRRAGGVLVASHLQSFLEVSYRVLRHLAQP
blood CD11b+Ly6G+ (anti-tumor) neutrophils in C3aR-/- mice compared with saline [8]: significantly enhanced; also recorded: significant (P=0.0079) increase | mobilization of blood neutrophils, C3aR-/- compared with wild-type mice [8]: significantly (P=0.0056) greater mobilization of neutrophils

From patent US10933049B2, “Mobilizing agents and uses therefor” (The University of Queensland, priority 2015, dated 2021)
